Experimental data taken from article PMC8878317, “Chemogenomics identifies acetyl-coenzyme A synthetase as a target for malaria treatment and prevention” (Cell Chemical Biology, 2022).
Read-outs that look alike come from different tables or passages of the source.

Columns and labels:
Type in all cases: cell-based
[1] = test system: P. falciparum NF54-PfAcAS-cKD; experiment: cKD compound susceptibility assay (luminescence, 72 hr), PfAcAS cKD line; settings: Plasmodium falciparum
Description: We used CRISPR-Cas9 to modify the native PfAcAS locus and install the linear pSN054 donor vector ([Nasamu et al., 2020]) that incorporates a C-terminal V5 and 2xHA-tags, a 10x aptamer array, and the TetR-DOZI expression cassette containing the blasticidin S deaminase gene, the reporter gene Renilla luciferase (RLuc), and the fusion proteins TetR-DOZI ([Ganesan et al., 2016]). The right homology region (RHR) was PCR amplified and inserted into pSN054 using the I-SceI restriction site. Fragments corresponding to the left homology region (LHR) fused to the re-codonized 3′-end of the gene (bp 2710–2991) as well as the target-specifying guide RNA sequence were synthesized using the BioXP 3200 System (SGI-DNA) and cloned into pSN054 using restriction sites FseI/AsisI and AflII, respectively. Donor vector generation was carried out via Gibson assembly, and the final construct was confirmed by restriction digests and Sanger sequencing. Primers used in this study are listed in the key resources table.
Transfection into Cas9-and T7 RNA polymerase-expressing NF54 parasites was carried out by preloading erythrocytes with the AcAS_pSN054 plasmid as described previously ([Deitsch et al., 2001]). Briefly, 50–100 μg of purified plasmid DNA were mixed with human red blood cells in 0.2 cm cuvettes and subjected to 8 square wave electroporation pulses of 365 V for 1 ms each, separated by 0.1 s. The DNA preloaded red blood cells were inoculated with schizont-stage parasites (e.g. NF54attB, NF54:pCRISPR) to achieve starting parasitemias ≤1% in RPMI 1640 Complete media. Cultures were maintained in 500 nM anhydrotetracycline (aTc; Sigma-Aldrich 37,919) and 2.5 μg/mL Blasticidin S (RPI Corp B12150–0.1). Emergence of transfectants was monitored via Giemsa smears and RLuc measurements. Clonal parasites were obtained by limiting dilution ([Rosario, 1981]).
Synchronous ring-stage, aptamer-regulated PfAcAS and control parasite lines were resuspended in varying aTc concentrations (high = 50 nM, low = 1 nM, and no aTc) and distributed into the drug plate. DMSO carrier and chloroquine (200 nM) wells served as positive and negative controls.

[2] = test system: histone acetylation in P. falciparum Dd2 parent; experiment: Histone acetylation Western blot, Dd2 parent; settings: trophozoites, 3 h exposure
Description: Synchronous trophozoite-stage (24-32hr post-invasion) cultures at 3–5% parasitemia and 2% hematocrit in complete medium were exposed to test compounds for 3 hr at 37°C. […] DMSO was tested at 0.1% as the vehicle-only control. Following drug exposure, parasites were isolated via saponin lysis ice-cold 0.1% saponin in phosphate-buffered saline (PBS). Isolated parasites were washed 3x in ice-cold PBS containing protease inhibitor cocktail (cOmplete mini, Roche) and lysed in 1x Laemmli Sample Buffer (Biorad) with 5% beta-mercaptoethanol (Sigma-Aldrich). Samples were heated at 99°C for 10 min before centrifugation. Equal quantities of solute were separated on Protean TGX Precast Gels (4–20% gradient) in Tris-SDS-glycine buffer, transferred to nitrocellulose membrane by iblot (Invitrogen), and blocked for 1h in tris-buffered saline (TBS) with 5% skim milk powder. Blocked membranes were probed with antibodies recognising tetra-acetylated H4 (H4ac4, Sigma-Aldrich 06–866), H4K8ac (CST #2594), H3K9ac (CST #9649) or H3 (CST #4499), at 1:1000 dilution, and PfBiP ([Shonhai et al., 2007]) (at 1:5000 dilution) in 3% milk powder TBS with 0.1% Tween 20 at 4°C overnight and with 800CW goat α-rabbit IgG (Licor) at 1:10,000 dilution. Membranes were visualised using a Licor Odyssey CLX imaging system and quantified using ImageJ.

P. falciparum parasites = experiment: Isobologram analyses (fractional IC50 of compound combinations); settings: combination with TSA
[3] = NF54, read-out: PfAcAS cKD EC50 ± SD (nM) (1nM aTc)
[4] = NF54, read-out: PfAcAS cKD EC50 ± SD (nM) (50nM aTc)

Compound: CCN(CC)S(=O)(=O)c1ccc(Cl)c(C(=O)Nc2ccc3nc(C)sc3c2)c1 [MMV019721]
- EC50 [1, 3]: 7 ± 1.2 nM
- EC50 [1, 4]: 43 ± 8.5 nM
- histone acetylation in Dd2 parent [2]: dose-dependent reduction
- interaction in isobologram analyses with the HDAC inhibitor TSA (P. falciparum parasites): strongly antagonistic

Compound: O=C(NNC(=O)c1csnn1)c1ccc(Cl)cc1 [MMV084978]
- EC50 [1, 3]: 45 ± 4.4 nM
- EC50 [1, 4]: 240 ± 64 nM
